± gives the expanded uncertainty stated by the source.
Key:
[1] = 293.15 K
[2] = wn = mass fraction of the nth substance listed; conditions: 293.15 K; for mass density / viscosity: 101.3 kPa, Liquid

CCOCCOCCOCC [diethylene glycol diethyl ether]
surface tension liquid-gas [1]: 29.27 ± 1.6 mN/m | mass density ([1]; 101.3 kPa, Liquid): 907.3 ± 4.2 kg/m3 | viscosity ([1]; 101.3 kPa, Liquid): 1.346 ± 0.042 mPa·s

CCOCCOCCOCC [diethylene glycol diethyl ether] + O
surface tension liquid-gas ([2]; w1 = 0.0033): 69.73 ± 2.8 mN/m | surface tension liquid-gas ([2]; w1 = 0.00984): 66.53 ± 2.7 mN/m | surface tension liquid-gas ([2]; w1 = 0.01771): 56.82 ± 2.4 mN/m | surface tension liquid-gas ([2]; w1 = 0.03207): 45.57 ± 2.1 mN/m | surface tension liquid-gas ([2]; w1 = 0.05896): 36.39 ± 1.8 mN/m | surface tension liquid-gas ([2]; w1 = 0.1611): 35.71 ± 1.8 mN/m | surface tension liquid-gas ([2]; w1 = 0.2547): 34.92 ± 1.8 mN/m | surface tension liquid-gas ([2]; w1 = 0.3578): 34.11 ± 1.8 mN/m | surface tension liquid-gas ([2]; w1 = 0.4474): 32.3 ± 1.7 mN/m | surface tension liquid-gas ([2]; w1 = 0.5769): 30.54 ± 1.7 mN/m | surface tension liquid-gas ([2]; w1 = 0.6385): 30.21 ± 1.6 mN/m | surface tension liquid-gas ([2]; w1 = 0.7794): 30.46 ± 1.6 mN/m | surface tension liquid-gas ([2]; w1 = 0.8549): 30.2 ± 1.6 mN/m | surface tension liquid-gas ([2]; w1 = 0.9401): 30.01 ± 1.6 mN/m | surface tension liquid-gas ([2]; w1 = 1): 29.27 ± 1.6 mN/m | mass density ([2]; w1 = 0.05896): 996.7 ± 4.8 kg/m3 | viscosity ([2]; w1 = 0.05896): 1.18 ± 0.037 mPa·s | mass density ([2]; w1 = 0.07683): 996.9 ± 4.8 kg/m3 | viscosity ([2]; w1 = 0.07683): 1.265 ± 0.039 mPa·s | mass density ([2]; w1 = 0.1038): 997.1 ± 4.8 kg/m3 | viscosity ([2]; w1 = 0.1038): 1.451 ± 0.044 mPa·s | mass density ([2]; w1 = 0.1227): 997.2 ± 4.8 kg/m3 | viscosity ([2]; w1 = 0.1227): 1.551 ± 0.047 mPa·s | mass density ([2]; w1 = 0.1425): 998.2 ± 4.8 kg/m3 | viscosity ([2]; w1 = 0.1425): 1.701 ± 0.051 mPa·s | mass density ([2]; w1 = 0.1611): 998.5 ± 4.8 kg/m3 | viscosity ([2]; w1 = 0.1611): 1.839 ± 0.055 mPa·s | mass density ([2]; w1 = 0.1951): 998.6 ± 4.8 kg/m3 | viscosity ([2]; w1 = 0.1951): 2.149 ± 0.063 mPa·s | mass density ([2]; w1 = 0.2207): 999.3 ± 4.8 kg/m3 | viscosity ([2]; w1 = 0.2207): 2.414 ± 0.071 mPa·s | mass density ([2]; w1 = 0.2547): 999.1 ± 4.8 kg/m3 | viscosity ([2]; w1 = 0.2547): 2.707 ± 0.079 mPa·s | mass density ([2]; w1 = 0.2828): 999.8 ± 4.8 kg/m3 | viscosity ([2]; w1 = 0.2828): 2.961 ± 0.086 mPa·s | mass density ([2]; w1 = 0.3185): 999.5 ± 4.8 kg/m3 | viscosity ([2]; w1 = 0.3185): 3.302 ± 0.095 mPa·s | mass density ([2]; w1 = 0.3578): 999.1 ± 4.8 kg/m3 | viscosity ([2]; w1 = 0.3578): 3.637 ± 0.1 mPa·s | mass density ([2]; w1 = 0.3773): 996.6 ± 4.8 kg/m3 | viscosity ([2]; w1 = 0.3773): 3.781 ± 0.11 mPa·s | mass density ([2]; w1 = 0.4231): 994.6 ± 4.8 kg/m3 | viscosity ([2]; w1 = 0.4231): 4.088 ± 0.12 mPa·s | mass density ([2]; w1 = 0.4474): 993.1 ± 4.8 kg/m3 | viscosity ([2]; w1 = 0.4474): 4.218 ± 0.12 mPa·s | mass density ([2]; w1 = 0.5151): 989 ± 4.7 kg/m3 | viscosity ([2]; w1 = 0.5151): 4.462 ± 0.13 mPa·s | mass density ([2]; w1 = 0.5769): 981.1 ± 4.7 kg/m3 | viscosity ([2]; w1 = 0.5769): 4.452 ± 0.13 mPa·s | mass density ([2]; w1 = 0.6029): 979.1 ± 4.7 kg/m3 | viscosity ([2]; w1 = 0.6029): 4.403 ± 0.12 mPa·s | mass density ([2]; w1 = 0.6385): 973.1 ± 4.6 kg/m3 | viscosity ([2]; w1 = 0.6385): 4.27 ± 0.12 mPa·s | mass density ([2]; w1 = 0.6814): 966.4 ± 4.6 kg/m3 | viscosity ([2]; w1 = 0.6814): 4.033 ± 0.12 mPa·s | mass density ([2]; w1 = 0.7256): 960.1 ± 4.6 kg/m3 | viscosity ([2]; w1 = 0.7256): 3.741 ± 0.11 mPa·s | mass density ([2]; w1 = 0.7794): 949.6 ± 4.5 kg/m3 | viscosity ([2]; w1 = 0.7794): 3.189 ± 0.092 mPa·s | mass density ([2]; w1 = 0.8549): 940.7 ± 4.4 kg/m3 | viscosity ([2]; w1 = 0.8549): 2.599 ± 0.076 mPa·s | mass density ([2]; w1 = 0.9195): 926.2 ± 4.3 kg/m3 | viscosity ([2]; w1 = 0.9195): 1.943 ± 0.058 mPa·s | mass density ([2]; w1 = 0.9401): 920.7 ± 4.3 kg/m3 | viscosity ([2]; w1 = 0.9401): 1.75 ± 0.05 mPa·s | mass density ([2]; w1 = 0.9769): 912.8 ± 4.3 kg/m3 | viscosity ([2]; w1 = 0.9769): 1.467 ± 0.045 mPa·s | mass density ([2]; w1 = 1): 907.3 ± 4.2 kg/m3 | viscosity ([2]; w1 = 1): 1.346 ± 0.042 mPa·s

O [water]
surface tension liquid-gas [1]: 72.75 ± 2.8 mN/m | viscosity ([1]; 101.3 kPa, Liquid): 1.002 ± 0.032 mPa·s

O [water] + CCOCCOCCOCC
surface tension liquid-gas ([2]; w2 = 0): 72.75 ± 2.8 mN/m | mass density ([2]; w2 = 0): 997.2 ± 4.8 kg/m3 | viscosity ([2]; w2 = 0): 1.002 ± 0.032 mPa·s
